Where two headings read alike, the source gives them in different places. Where a SMILES comes first, the peptide text is derived from it.
What was measured:
NRP-1 [1] = biological target: T1, NRP-1 (Homo sapiens, UniProt O14786); test: NRP-1 binding assay: inhibition of (bt)-VEGF-A165 binding to immobilized NRP-1, chemiluminescent detection
Protocol: More precisely, the inventors have shown that the compounds of formula (I) disclosed herein bind to NRP-1 at the nanomolar level whereas the most efficient known inhibitors to date bind to NRP-1 at the micromolar level.
The flat bottom surface of a 96-well plate was coated with 100 μL (200 ng/well) recombinant human NRP-1 and incubated overnight at 4° C. Non-specific binding was blocked by the incubation with 0.5% BSA in PBS. 50 μL of peptide dissolved in PBS in range concentrations and 50 μL (400 ng/mL) of human (bt)-VEGF-A165 in PBS containing 4 μg/mL of heparin were added respectively. After 2 h incubation at room temperature the plate was washed and treated with streptavidin-horseradish peroxidase conjugate in PBS (1:8000). Chemiluminescence was quantified immediately after addition of 100 μL Chemiluminescent substrate. In a positive control only (bt)-VEGF-A165 was present in wells, while, in negative control, wells were not coated by NRP-1. Percentages of inhibition were calculated by the following formula: 100%−[[(S−[…])/(P−NS)]·100%] where S is the signal intensity measured, NS is the signal measured in negative control, and P is the signal measured in positive control.
Selected active branched peptides were tested again using a more sensitive method with chemiluminescent detection. Moreover, some modified compounds were also examined. The IC50 for selected Lys(hArg)-X-X-Arg peptides was between 2-21 μM (Puszko A. K. at al. Neuropilin-1 peptide-like ligands with proline mimetics, tested using the improved chemiluminescence affinity detection method. MedChemComm, 2019, Vol. 10: 332-340).

NRP-1 [2] = biological target: T1, NRP-1; conditions: comparative branched peptides without cysteine; colorimetric method; cited from earlier work
NRP-1 [3] = biological target: T1, NRP-1; conditions: further comparative branched peptides without cysteine; chemiluminescent detection (Puszko et al. 2019); cited from earlier work
[4] = peptides of formula (I), chemiluminescence binding assay, read-out: IC50

T1 sequence (O14786 22-923): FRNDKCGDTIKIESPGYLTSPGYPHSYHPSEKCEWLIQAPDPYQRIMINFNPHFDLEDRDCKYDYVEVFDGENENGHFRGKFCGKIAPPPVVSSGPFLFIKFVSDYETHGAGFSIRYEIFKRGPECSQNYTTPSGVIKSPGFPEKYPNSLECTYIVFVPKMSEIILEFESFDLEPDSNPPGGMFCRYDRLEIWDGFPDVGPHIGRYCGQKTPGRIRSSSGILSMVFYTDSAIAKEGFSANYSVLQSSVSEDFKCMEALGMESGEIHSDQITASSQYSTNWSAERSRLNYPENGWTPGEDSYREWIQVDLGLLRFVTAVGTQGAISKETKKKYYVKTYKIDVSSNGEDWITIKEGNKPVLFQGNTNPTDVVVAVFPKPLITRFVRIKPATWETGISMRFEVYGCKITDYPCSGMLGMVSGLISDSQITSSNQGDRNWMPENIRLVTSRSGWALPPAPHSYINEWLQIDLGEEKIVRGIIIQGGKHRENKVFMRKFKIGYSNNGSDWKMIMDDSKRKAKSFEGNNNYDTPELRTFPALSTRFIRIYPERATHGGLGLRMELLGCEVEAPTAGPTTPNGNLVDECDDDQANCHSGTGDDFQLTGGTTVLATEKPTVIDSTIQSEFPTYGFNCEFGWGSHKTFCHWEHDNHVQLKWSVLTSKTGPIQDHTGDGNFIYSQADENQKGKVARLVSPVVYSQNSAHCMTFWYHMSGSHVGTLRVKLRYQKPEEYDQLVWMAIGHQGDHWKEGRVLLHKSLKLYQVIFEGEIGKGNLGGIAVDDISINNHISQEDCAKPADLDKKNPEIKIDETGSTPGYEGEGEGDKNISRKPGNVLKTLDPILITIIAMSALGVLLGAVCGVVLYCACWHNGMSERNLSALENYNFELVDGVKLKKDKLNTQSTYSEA

N=C(N)NCCCC[C@H](N)C(=O)NCCCC[C@H](NC(=O)[C@@H](N)CS)C(=O)N[C@@H](CCN)C(=O)N1C2CCCCC2C[C@H]1C(=O)N[C@@H](CCCNC(=N)N)C(=O)O (stereo partly drawn) [H-Cys-Lys(hArg)-Dab-Oic-Arg-OH] (HELM PEPTIDE1{C.K.[Dab].[O=C([C@@H]1CC2CCCCC2N1[*:1])[*:2]].R}|PEPTIDE2{[N=C(N)NCCCC[C@H](N)C(=O)[*:2]]}$PEPTIDE1,PEPTIDE2,2:R3-1:R2$$$V2.0)
IC50 (NRP-1 [1]; [4]): 0.05 µM

N=C(N)NCCCC[C@H](N)C(=O)NCCCC[C@H](NC(=O)[C@@H](N)CS)C(=O)N[C@@H](CCN)C(=O)N1CC=C[C@H]1C(=O)N[C@@H](CCCNC(=N)N)C(=O)O [H-Cys-Lys(hArg)-Dab-ΔPro-Arg-OH] (HELM PEPTIDE1{C.K.[Dab].[O=C([C@@H]1C=CCN1[*:1])[*:2]].R}|PEPTIDE2{[N=C(N)NCCCC[C@H](N)C(=O)[*:2]]}$PEPTIDE1,PEPTIDE2,2:R3-1:R2$$$V2.0)
IC50 (NRP-1 [1]; [4]): 0.07 µM

N=C(N)NCCCC[C@H](NC(=O)[C@@H](N)CS)C(=O)NCCCC[C@H](N)C(=O)N[C@@H](CCN)C(=O)N1C2CCCCC2C[C@H]1C(=O)N[C@@H](CCCNC(=N)N)C(=O)O (stereo partly drawn) [H-Lys(Cys-hArg)-Dab-Oic-Arg-OH] (HELM PEPTIDE1{K.[Dab].[O=C([C@@H]1CC2CCCCC2N1[*:1])[*:2]].R}|PEPTIDE2{C.[N=C(N)NCCCC[C@H](N[*:1])C(=O)[*:2]]}$PEPTIDE1,PEPTIDE2,1:R3-2:R2$$$V2.0)
IC50 (NRP-1 [1]; [4]): 0.04 µM

N=C(N)NCCCC[C@H](NC(=O)[C@@H](N)CS)C(=O)NCCCC[C@H](N)C(=O)N[C@@H](CCN)C(=O)N1CC=C[C@H]1C(=O)N[C@@H](CCCNC(=N)N)C(=O)O [H-Lys(Cys-hArg)-Dab-ΔPro-Arg-OH] (HELM PEPTIDE1{K.[Dab].[O=C([C@@H]1C=CCN1[*:1])[*:2]].R}|PEPTIDE2{C.[N=C(N)NCCCC[C@H](N[*:1])C(=O)[*:2]]}$PEPTIDE1,PEPTIDE2,1:R3-2:R2$$$V2.0)
IC50 (NRP-1 [1]; [4]): 0.06 µM

N=C(N)NCCCC[C@H](N)C(=O)NCCCC[C@H](N)C(=O)N[C@@H](CCN)C(=O)N1CCC[C@H]1C(=O)N[C@@H](CCCNC(=N)N)C(=O)O [H-Lys(hArg)-Dab-Pro-Arg-OH] (HELM PEPTIDE1{K.[Dab].P.R}|PEPTIDE2{[N=C(N)NCCCC[C@H](N)C(=O)[*:2]]}$PEPTIDE1,PEPTIDE2,1:R3-1:R2$$$V2.0)
IC50 (NRP-1 [2]): 200 nM

N=C(N)NCCCC[C@H](N)C(=O)NCCCC[C@H](N)C(=O)N[C@@H](CN)C(=O)N1CCC[C@H]1C(=O)N[C@@H](CCCNC(=N)N)C(=O)O [H-Lys(hArg)-Dap-Pro-Arg-OH] (HELM PEPTIDE1{K.[NC[C@H](N[*:1])C(=O)[*:2]].P.R}|PEPTIDE2{[N=C(N)NCCCC[C@H](N)C(=O)[*:2]]}$PEPTIDE1,PEPTIDE2,1:R3-1:R2$$$V2.0)
IC50 (NRP-1 [2]): 200 nM

N=C(N)NCCCC[C@H](N)C(=O)NCCCC[C@H](N)C(=O)N1CCC[C@H]1C(=O)N[C@@H](CCN)C(=O)N[C@@H](CCCNC(=N)N)C(=O)O [H-Lys(hArg)-Pro-Dab-Arg-OH] (HELM PEPTIDE1{K.P.[Dab].R}|PEPTIDE2{[N=C(N)NCCCC[C@H](N)C(=O)[*:2]]}$PEPTIDE1,PEPTIDE2,1:R3-1:R2$$$V2.0)
IC50 (NRP-1 [2]): 200 nM

N=C(N)NCCCC[C@H](N)C(=O)NCCCC[C@H](N)C(=O)N1CCC[C@H]1C(=O)N1CCC[C@H]1C(=O)N[C@@H](CCCNC(=N)N)C(=O)O [H-Lys(hArg)-Pro-Pro-Arg-OH] (HELM PEPTIDE1{K.P.P.R}|PEPTIDE2{[N=C(N)NCCCC[C@H](N)C(=O)[*:2]]}$PEPTIDE1,PEPTIDE2,1:R3-1:R2$$$V2.0)
IC50 (NRP-1 [2]): 1000 nM

C[C@@H](O)[C@H](N)C(=O)N[C@@H](CCCCN)C(=O)N1CCC[C@H]1C(=O)N[C@@H](CCCNC(=N)N)C(=O)O [TKPR] (H-TKPR-OH; N-terminus and C-terminus assumed)
IC50 (NRP-1 [1]; parent tetrapeptide without N-terminal Cys, VEGF-A165/NRP-1 binding, read-out: IC50 [μM] without Cys): > 100 µM

H-Lys(hArg)-Dab-Oic-Arg-OH
IC50 (NRP-1 [3]): 2300 nM

H-Lys(hArg)-Oic-Oic-Arg-OH
IC50 (NRP-1 [3]): 7200 nM

— patent US12590122B2, “NRP-1 binding inhibitory peptides and uses thereof” (priority 2019, dated 2026)
